# ChEMBL document CHEMBL5579888, “A Comparative Study on the DNA Interactions and Biological Activities of Benzophenanthridine and Protoberberine Alkaloids” (J Nat Prod, 2024)
# The source made the active and inactive calls. No cut-off for these calls is given here.
# Key:
# PC-3 = assay: Antiproliferative activity against human PC-3 cells assessed as reduction in cell viability incubated for 24 hrs by CCK-8 assay; format: functional, cell-based; conditions: PC-3, 24 h
# A-375 [1] = assay: Induction of apoptosis in human A-375 cells assessed assessed as early apoptotic cells at 5 uM incubated for 24 hrs by Annexin V-Elab Fluor 647/propidium iodide staining based flow cytometry (reference value: 1.14 %); format: functional
# A-375 [2] = assay: Induction of cell cycle arrest in human A-375 cells assessed assessed as cell accumulation at S phase at 5 uM incubated for 24 hrs by propidium iodide staining based flow cytometry (reference value: 30.05 %); format: functional
# dsDNA [3] = assay: Binding affinity to double stranded DNA ssab3 (unknown origin) incubated for 0.5 hrs in presence of different concentration DNA by fluorescence spectra analysis; format: nucleic-acid assay
# Quadruplex DNA [4] = assay: Binding affinity to human G4-quadruplex Bcl2 DNA 5'- CGGGCGCGGGAGGAAGGGGGCGGGAGC-3' assessed as change in fluorescence intensity at 1 uM incubated for 0.5 hrs by fluorescence spectra analysis; format: nucleic-acid assay
# Quadruplex DNA [5] = assay: Binding affinity to human G4-quadruplex Oxy28 DNA 5'- GGGGTTTTGGGGTTTTGGGGTTTTGGGG -3' assessed as change in fluorescence intensity at 1 uM incubated for 0.5 hrs in presence of different concentrations of DNA by fluorescence spectra analysis; format: nucleic-acid assay
# Quadruplex DNA [6] = assay: Displacement of ThT from human G4-quadruplex Oxy28 DNA 5'- GGGGTTTTGGGGTTTTGGGGTTTTGGGG -3' incubated for 0.5 hrs by SpectraMax M2 microplate reader analysis; format: nucleic-acid assay
# dsDNA [7] = assay: Binding affinity to double stranded DNA AT15-4AT (unknown origin) incubated for 0.5 hrs in presence of different concentration DNA by fluorescence spectra analysis; format: nucleic-acid assay
# dsDNA [8] = assay: Binding affinity to double stranded DNA ssab (unknown origin) assessed as change in fluorescence intensity at 1 uM incubated for 0.5 hrs in presence of different concentrations of DNA by fluorescence spectra analysis; format: nucleic-acid assay
# dsDNA [9] = assay: Binding affinity to double stranded DNA AT17 (unknown origin) incubated for 0.5 hrs in presence of different concentration DNA by fluorescence spectra analysis; format: nucleic-acid assay
# LoVo = assay: Antiproliferative activity against human LoVo cells assessed as reduction in cell viability incubated for 48 hrs by CCK-8 assay; format: functional, cell-based
# Quadruplex DNA [10] = assay: Binding affinity to human G4-quadruplex Oxy28 DNA 5'- GGGGTTTTGGGGTTTTGGGGTTTTGGGG -3' at 10 uM by CD spectra analysis; format: nucleic-acid assay
# Quadruplex DNA [11] = assay: Displacement of ThT from human G4-quadruplex 22AG DNA 5'- AGGGTTAGGGTTAGGGTTAGGG -3' incubated for 0.5 hrs by SpectraMax M2 microplate reader analysis; format: nucleic-acid assay
# Quadruplex DNA [12] = assay: Binding affinity to human G4-quadruplex VEGF DNA 5'- GGGCGGGCCGGGGGCGGG-3' assessed as change in fluorescence intensity at 1 uM incubated for 0.5 hrs by fluorescence spectra analysis; format: nucleic-acid assay
# Calf thymus DNA = assay: Displacement of Hoechst 33342 from calf thymus DNA incubated for 0.5 hrs by SpectraMax M2 microplate reader analysis; format: nucleic-acid assay, Bos taurus
# Quadruplex DNA [13] = assay: Binding affinity to human G4-quadruplex Oxy28 DNA 5'- GGGGTTTTGGGGTTTTGGGGTTTTGGGG -3' assessed as change in fluorescence intensity at 1 uM incubated for 0.5 hrs by fluorescence spectra analysis; format: nucleic-acid assay
# Quadruplex DNA [14] = assay: Displacement of ThT from human G4-quadruplex c-kit2 DNA 5'- CGGGCGGGCGCGAGGGAGGGT-3' incubated for 0.5 hrs by SpectraMax M2 microplate reader analysis; format: nucleic-acid assay
# Quadruplex DNA [15] = assay: Binding affinity to human G4-quadruplex c-kit2 DNA 5'- CGGGCGGGCGCGAGGGAGGGT-3' assessed as change in fluorescence intensity at 1 uM incubated for 0.5 hrs in presence of different concentrations of DNA by fluorescence spectra analysis; format: nucleic-acid assay
# A2780/Taxol = assay: Antiproliferative activity against human A2780T cells assessed as reduction in cell viability incubated for 48 hrs by CCK-8 assay; format: functional, cell-based
# A549/TR = assay: Antiproliferative activity against human A549/Taxol cells assessed as reduction in cell viability incubated for 48 hrs by CCK-8 assay; format: functional, cell-based
# Quadruplex DNA [16] = assay: Displacement of ThT from human G4-quadruplex Bcl2 DNA 5'- CGGGCGCGGGAGGAAGGGGGCGGGAGC-3' incubated for 0.5 hrs by SpectraMax M2 microplate reader analysis; format: nucleic-acid assay
# dsDNA [17] = assay: Displacement of Hoechst 33342 from double stranded DNA ssab (unknown origin) incubated for 0.5 hrs by SpectraMax M2 microplate reader analysis; format: nucleic-acid assay
# Quadruplex DNA [18] = assay: Binding affinity to human G4-quadruplex Pu27 DNA 5'- TGGGGAGGGTGGGGAGGGTGGGGAAGG-3' at 20 uM by UV-Visible absorption spectroscopic analysis; format: nucleic-acid assay
# Quadruplex DNA [19] = assay: Binding affinity to human G4-quadruplex c-kit2 DNA 5'- CGGGCGGGCGCGAGGGAGGGT-3' assessed as change in fluorescence intensity at 1 uM incubated for 0.5 hrs by fluorescence spectra analysis; format: nucleic-acid assay
# Quadruplex DNA [20] = assay: Binding affinity to human G4-quadruplex KRAS DNA 5'- AGGGCGGTGTGGGAAGAGGGAAGAGGGGGAGG-3' assessed as change in fluorescence intensity at 1 uM incubated for 0.5 hrs in presence of different concentrations of DNA by fluorescence spectra analysis; format: nucleic-acid assay
# Quadruplex DNA [21] = assay: Binding affinity to human G4-quadruplex 22AG DNA 5'- AGGGTTAGGGTTAGGGTTAGGG -3' assessed as change in fluorescence intensity at 1 uM incubated for 0.5 hrs in presence of different concentrations of DNA by fluorescence spectra analysis; format: nucleic-acid assay
# Quadruplex DNA [22] = assay: Binding affinity to human G4-quadruplex 22AG DNA 5'- AGGGTTAGGGTTAGGGTTAGGG -3' assessed as change in fluorescence intensity at 1 uM incubated for 0.5 hrs by fluorescence spectra analysis; format: nucleic-acid assay
smiles,measurement,setting,value
COc1ccc2cc3[n+](cc2c1OC)CCc1cc2c(cc1-3)OCO2 [BERBERINE],IC50,PC-3,≥ 24.3 µM
same,Activity,A-375 [1],1.28%
same,Activity,A-375 [2],28.42%
same,EC50,dsDNA [3],0.23 µM
same,Activity,Quadruplex DNA [4],Active
same,Kd,Quadruplex DNA [5],1.67 µM
same,DC50,Quadruplex DNA [6],3.1 µM
same,EC50,dsDNA [7],0.23 µM
same,Activity,dsDNA [8],inactive
same,EC50,dsDNA [9],0.72 µM
same,IC50,LoVo,≥ 24.3 µM
same,Activity,Quadruplex DNA [10],inactive
same,DC50,Quadruplex DNA [11],23.5 µM
same,Activity,Quadruplex DNA [12],Active
same,DC50,Calf thymus DNA,30.7 µM
same,Activity,Quadruplex DNA [13],Active
same,DC50,Quadruplex DNA [14],0.69 µM
same,Kd,Quadruplex DNA [15],4.22 µM
same,IC50,A2780/Taxol,≥ 24.3 µM
same,IC50,A549/TR,≥ 24.3 µM
same,Kd,Quadruplex DNA [16],1.84 µM
same,DC50,dsDNA [17],22.1 µM
same,Activity,Quadruplex DNA [18],Active
same,Activity,Quadruplex DNA [19],Active
same,Kd,Quadruplex DNA [20],1.89 µM
same,Kd,Quadruplex DNA [21],15.6 µM
same,Activity,Quadruplex DNA [22],Active
C[n+]1cc2c3c(ccc2c2ccc4cc5c(cc4c21)OCO5)OCO3 [SANGUINARIUM],Activity,A-375 [1],0.84%
same,Activity,A-375 [2],31.29%
same,EC50,dsDNA [3],1.48 µM
same,Activity,Quadruplex DNA [4],Active
same,Activity,Quadruplex DNA [5],inactive
same,DC50,Quadruplex DNA [6],0.74 µM
same,EC50,dsDNA [7],0.77 µM
same,Activity,dsDNA [8],Active
same,EC50,dsDNA [9],2.33 µM
same,Activity,Quadruplex DNA [10],inactive
same,DC50,Quadruplex DNA [11],2.76 µM
same,Activity,Quadruplex DNA [12],Active
same,DC50,Calf thymus DNA,5.87 µM
same,Activity,Quadruplex DNA [13],Active
same,DC50,Quadruplex DNA [14],0.25 µM
same,Activity,Quadruplex DNA [15],inactive
same,Kd,Quadruplex DNA [16],0.44 µM
same,DC50,dsDNA [17],3.21 µM
same,Activity,Quadruplex DNA [18],Active
same,Activity,Quadruplex DNA [19],Active
same,Kd,Quadruplex DNA [20],2.79 µM
same,Activity,Quadruplex DNA [21],inactive
same,Activity,Quadruplex DNA [22],Active
COc1ccc2c(c[n+](C)c3c4cc5c(cc4ccc23)OCO5)c1OC [CHELERYTHRINE],Activity,A-375 [1],1.84%
same,Activity,A-375 [2],33.02%
same,EC50,dsDNA [3],1.29 µM
same,Activity,Quadruplex DNA [4],Active
same,Activity,Quadruplex DNA [5],inactive
same,DC50,Quadruplex DNA [6],1.15 µM
same,EC50,dsDNA [7],1.15 µM
same,Activity,dsDNA [8],Active
same,EC50,dsDNA [9],3.89 µM
same,Activity,Quadruplex DNA [10],inactive
same,DC50,Quadruplex DNA [11],3.04 µM
same,Activity,Quadruplex DNA [12],Active
same,DC50,Calf thymus DNA,6.7 µM
same,Activity,Quadruplex DNA [13],Active
same,DC50,Quadruplex DNA [14],0.55 µM
same,Activity,Quadruplex DNA [15],inactive
same,Kd,Quadruplex DNA [16],0.86 µM
same,DC50,dsDNA [17],3.49 µM
same,Activity,Quadruplex DNA [18],Active
same,Activity,Quadruplex DNA [19],Active
same,Kd,Quadruplex DNA [20],1.07 µM
same,Activity,Quadruplex DNA [21],inactive
same,Activity,Quadruplex DNA [22],Active
c1c2c(cc3c1OCO3)-c1cc3ccc4c(c3c[n+]1CC2)OCO4 [COPTISINE],IC50,PC-3,≥ 24.3 µM
same,Activity,A-375 [1],0%
same,Activity,A-375 [2],28.21%
same,EC50,dsDNA [3],5.84 µM
same,Activity,Quadruplex DNA [4],Active
same,Kd,Quadruplex DNA [5],0.98 µM
same,DC50,Quadruplex DNA [6],0.58 µM
same,EC50,dsDNA [7],5.57 µM
same,Activity,dsDNA [8],inactive
same,EC50,dsDNA [9],7.78 µM
same,IC50,LoVo,≥ 24.3 µM
same,Activity,Quadruplex DNA [10],inactive
same,DC50,Quadruplex DNA [11],1.97 µM
same,Activity,Quadruplex DNA [12],Active
same,DC50,Calf thymus DNA,31.4 µM
same,Activity,Quadruplex DNA [13],Active
same,DC50,Quadruplex DNA [14],0.17 µM
same,Kd,Quadruplex DNA [15],2.59 µM
same,IC50,A2780/Taxol,≥ 24.3 µM
same,IC50,A549/TR,≥ 24.3 µM
same,Kd,Quadruplex DNA [16],0.35 µM
same,DC50,dsDNA [17],23.1 µM
same,Activity,Quadruplex DNA [18],Active
same,Activity,Quadruplex DNA [19],Active
same,Kd,Quadruplex DNA [20],1.13 µM
same,Kd,Quadruplex DNA [21],5.93 µM
same,Activity,Quadruplex DNA [22],Active
